Usually IC50 stands for the concentration needed to halve the response being measured. A low value points to higher potency.

Our source for the inhibition and IC50 values is US10385057B2, “Pyrazole compounds and methods of making and using same” (Lundbeck La Jolla Research Center, Inc., priority 2015, dated 2019).

The target of assay [1] is T1, MAGL (Mus musculus, UniProt O35678).
T1 construct: mouse brain membrane fraction or cell lysates for mouse assays; from tissue
T1 sequence (O35678 1-303): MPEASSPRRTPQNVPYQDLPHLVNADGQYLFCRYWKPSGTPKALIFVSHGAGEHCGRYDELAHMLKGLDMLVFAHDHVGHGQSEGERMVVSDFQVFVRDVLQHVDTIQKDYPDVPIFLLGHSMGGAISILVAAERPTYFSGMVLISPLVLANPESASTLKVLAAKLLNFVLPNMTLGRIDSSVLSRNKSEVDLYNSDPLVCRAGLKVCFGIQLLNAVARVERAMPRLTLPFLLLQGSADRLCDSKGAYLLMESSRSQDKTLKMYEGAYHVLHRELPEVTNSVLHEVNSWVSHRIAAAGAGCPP
Kind of assay: In vitro competitive activity-based protein profiling, mouse MAGL. The assay is classed as biochemical. To be noted: for inhibition at 1 µM: read-out: MAGL % inh. 1 μM (mouse). In a few lines: (§1)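 Activity measured as fluorescent gel-band intensity of MAGL and FAAH after SDS-PAGE. Before labelling with FP-Rh or HT-01 (30 min, 37 °C), proteomes at 1.0 mg/mL (mouse brain membrane or lysates; human prefrontal cortex or cell membranes) were exposed to varying inhibitor concentrations for 30 min at 37 °C.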

For assay [2], the target named is T1, MAGL. The assay can be described thus: Mouse brain proteomes from inhibitor treated mice, MAGL. The settings on record: oral gavage, brain 4 h after administration, read-out: MAGL % inh. 5 mg/kg (mouse). It is filed as in vivo. The protocol: Preparation of Mouse Brain Proteomes from Inhibitor Treated Mice.
Inhibitors were administered to wild-type C57Bl/6J by oral gavage in a vehicle of polyethylene glycol. Each animal was sacrificed 4 h following administration and brain proteomes were prepared and analyzed according to previously established methods (See Niphakis, M. J., et al. (2011) ACS Chem. Neurosci. and Long, J. Z., et al. Nat. Chem. Biol. 5:37-44).

In assay [3] the target is T2, FAAH (Mus musculus, UniProt O08914).
T2 construct: mouse brain membrane fraction or cell lysates for mouse assays; from tissue
T2 sequence (O08914 1-579): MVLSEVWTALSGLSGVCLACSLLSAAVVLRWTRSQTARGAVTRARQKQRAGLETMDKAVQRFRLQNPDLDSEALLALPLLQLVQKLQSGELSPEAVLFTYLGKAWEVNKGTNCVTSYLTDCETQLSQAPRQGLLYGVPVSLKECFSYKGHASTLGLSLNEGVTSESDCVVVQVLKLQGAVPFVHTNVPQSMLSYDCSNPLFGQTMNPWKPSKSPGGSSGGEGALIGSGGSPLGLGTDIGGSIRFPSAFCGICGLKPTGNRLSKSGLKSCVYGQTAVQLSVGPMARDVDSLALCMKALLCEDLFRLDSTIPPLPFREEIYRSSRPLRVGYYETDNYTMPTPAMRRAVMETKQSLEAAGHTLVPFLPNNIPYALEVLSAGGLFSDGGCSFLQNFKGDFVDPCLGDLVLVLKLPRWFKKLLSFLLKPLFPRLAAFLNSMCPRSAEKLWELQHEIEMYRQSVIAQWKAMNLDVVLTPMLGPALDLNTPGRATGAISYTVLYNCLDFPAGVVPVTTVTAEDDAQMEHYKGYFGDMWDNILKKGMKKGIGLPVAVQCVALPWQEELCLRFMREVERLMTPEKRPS
The assay can be described thus: In vitro competitive activity-based protein profiling, mouse FAAH. The assay is classed as biochemical. To be noted: for inhibition at 1 µM: read-out: FAAH % inh. 1 μM (mouse). In a few lines: as §1

SMILES strings stand for the structures.

As to `NC(=O)c1cnn(C(=O)N2CCC3(CCN(Cc4cc(Cl)ccc4Cl)C3)C2)c1` (stereo not drawn) [Example 39, 1-(7-(2,5-dichlorobenzyl)-2,7-diazaspiro[4.4]nonane-2-carbonyl)-1H-pyrazole-4-carboxamide], the inhibition at 1 µM in assay [1] and in assay [3] was no less than 75% throughout. For the same molecule, the inhibition at 5 mg/kg in assay [2] was no less than 75%.
In the case of `NC(=O)c1cnn(C(=O)N2CCC3(CCN(Cc4cccc(C(F)(F)F)c4)C3)C2)c1` (stereo not drawn) [Example 41, 1-(7-(3-(trifluoromethyl)benzyl)-2,7-diazaspiro[4.4]nonane-2-carbonyl)-1H-pyrazole-4-carboxamide], in assay [1], the IC50 was in the range of 100 to 1000 nM and the inhibition at 1 µM was no less than 75%. Further, the inhibition at 5 mg/kg in assay [2] is no less than 75%. For the same molecule, in assay [3], the IC50 was no more than 100 nM and the inhibition at 1 µM was no less than 75%.
With `NC(=O)c1cnn(C(=O)N2CCC3(CCN(Cc4cc(Cl)cc(C(F)(F)F)c4)C3)C2)c1` (stereo not drawn) [Example 43, 1-(7-(3-chloro-5-(trifluoromethyl)benzyl)-2,7-diazaspiro[4.4]nonane-2-carbonyl)-1H-pyrazole-4-carboxamide], in assay [1], the IC50 was no more than 100 nM and the inhibition at 1 µM was no less than 75%. Moreover, the inhibition at 5 mg/kg in assay [2] was no less than 75%. Further, in assay [3], the IC50 is no more than 100 nM and the inhibition at 1 µM was no less than 75%.
For the molecule `NC(=O)c1cnn(C(=O)N2CCC3(CCN(Cc4ccc(N5CCOCC5)cc4C(F)(F)F)C3)C2)c1` (stereo not drawn) [Example 45, 1-(7-(4-morpholino-2-(trifluoromethyl)benzyl)-2,7-diazaspiro[4.4]nonane-2-carbonyl)-1H-pyrazole-4-carboxamide], in assay [1], the IC50 was in the range of 100 to 1000 nM and the inhibition at 1 µM was no less than 75%. In assay [2], the inhibition at 5 mg/kg was no less than 75%. In assay [3], the IC50 is no more than 100 nM and the inhibition at 1 µM was no less than 75%.
Regarding `O=C(c1cnn(C(=O)N2CCC3(CCN(Cc4ccc(N5CCOCC5)cc4C(F)(F)F)C3)C2)c1)N1CCCC1` (stereo not drawn) [Example 50, (1-(7-(4-morpholino-2-(trifluoromethyl)benzyl)-2,7-diazaspiro[4.4]nonane-2-carbonyl)-1H-pyrazol-4-yl)(pyrrolidin-1-yl)methanone], the values for the IC50 in assay [1] and in assay [3] were 100 to 1000 nM and no more than 100 nM, respectively. Also, the inhibition at 1 µM in assay [1] and in assay [3] was no less than 75% throughout. Besides, the inhibition at 5 mg/kg in assay [2] lay within 0 to 25%.
As for `CNC(=O)c1cnn(C(=O)N2C[C@H]3C[C@@H](N(C)Cc4ccc(C(F)(F)F)cc4)C[C@H]3C2)c1` [Example 54, N-methyl-1-(cis-5-(methyl(4-(trifluoromethyl)benzyl)amino)octahydrocyclopenta[c]pyrrole-2-carbonyl)-1H-pyrazole-4-carboxamide], in assay [1], the IC50 lay within 100 to 1000 nM and the inhibition at 1 µM is no less than 75%. Further, the inhibition at 5 mg/kg in assay [2] is no less than 75%. Besides, in assay [3], the IC50 is no more than 100 nM and the inhibition at 1 µM is no less than 75%.
For `CN(Cc1cc(N2CCCC2)cc(C(F)(F)F)c1)[C@H]1C[C@@H]2CN(C(=O)n3cc(C(N)=O)cn3)C[C@@H]2C1` [Example 217, 1-(trans-5-(methyl(3-(pyrroldin-1-yl)-5-(trifluoromethyl)benzyl)amino)octahydrocyclopenta[c]pyrrole-2-carbonyl)-1H-pyrazole-4-carboxamide], the inhibition at 1 µM in assay [1] and in assay [3] was no less than 75% throughout.
As for `CN(Cc1cc(C(F)(F)F)ccc1Cl)[C@@H]1C[C@@H]2CN(C(=O)n3cc(C(N)=O)cn3)C[C@@H]2C1` [Example 218, 1-(cis-5-((2-chloro-5-(trifluoromethyl)benzyl)(methyl)amino)octahydrocyclopenta[c]pyrrole-2-carbonyl)-1H-pyrazole-4-carboxamide], the inhibition at 1 µM in assay [1] and in assay [3] was no less than 75% in each case.
As to `CN(Cc1cc(Cl)ccc1C(F)(F)F)[C@@H]1C[C@@H]2CN(C(=O)n3cc(C(N)=O)cn3)C[C@@H]2C1` [Example 219, 1-(cis-5-((5-chloro-2-(trifluoromethyl)benzyl)(methyl)amino)octahydrocyclopenta[c]pyrrole-2-carbonyl)-1H-pyrazole-4-carboxamide], the inhibition at 1 µM in assay [1] and in assay [3] was no less than 75% throughout.
For the molecule `CN(Cc1ccc(C(F)(F)F)c(N2CCCC2)c1)[C@@H]1C[C@@H]2CN(C(=O)n3cc(C(N)=O)cn3)C[C@@H]2C1` [Example 221, 1-(cis-5-(methyl(3-(pyrrolidin-1-yl)-4-(trifluoromethyl)benzyl)amino)octahydrocyclopenta[c]pyrrole-2-carbonyl)-1H-pyrazole-4-carboxamide], the inhibition at 1 µM in assay [1] and in assay [3] was no less than 75% in each case.
`CN(Cc1cc(N2CCCC2)cc(C(F)(F)F)c1)[C@@H]1C[C@@H]2CN(C(=O)n3cc(C(N)=O)cn3)C[C@@H]2C1` [Example 222, 1-(cis-5-(methyl(3-(pyrrolidin-1-yl)-5-(trifluoromethyl)benzyl)amino)octahydrocyclopenta[c]pyrrole-2-carbonyl)-1H-pyrazole-4-carboxamide]: the inhibition at 1 µM in assay [1] and in assay [3] was no less than 75% throughout.
Turning to `CN(Cc1ccc(-c2cnccn2)cc1C(F)(F)F)[C@H]1C[C@@H]2CN(C(=O)n3cc(C(N)=O)cn3)C[C@@H]2C1` [Example 223, 1-(trans-5-(methyl(4-(pyrazin-2-yl)-2-(trifluoromethyl)benzyl)amino)octahydrocyclopenta[c]pyrrole-2-carbonyl)-1H-pyrazole-4-carboxamide], the inhibition at 1 µM in assay [1] and in assay [3] was no less than 75% in each case.
With `CN(Cc1ccc(-c2nccs2)cc1C(F)(F)F)[C@H]1C[C@@H]2CN(C(=O)n3cc(C(N)=O)cn3)C[C@@H]2C1` [Example 224, 1-(trans-5-(methyl(4-(thiazol-2-yl)-2-(trifluoromethyl)benzyl)amino)octahydrocyclopenta[c]pyrrole-2-carbonyl)-1H-pyrazole-4-carboxamide], the inhibition at 1 µM in assay [1] and in assay [3] was no less than 75% each time.
Take `CN(Cc1ccc(-c2cccnn2)cc1C(F)(F)F)[C@H]1C[C@@H]2CN(C(=O)n3cc(C(N)=O)cn3)C[C@@H]2C1` [Example 225, 1-(trans-5-(methyl(4-(pyridazin-3-yl)-2-(trifluoromethyl)benzyl)amino)octahydrocyclopenta[c]pyrrole-2-carbonyl)-1H-pyrazole-4-carboxamide]: the values for the inhibition at 1 µM in assay [1] and in assay [3] were no less than 75% and 50 to 75%, respectively.
Taken in the same sequence, the figures for `CN(Cc1ccc(-c2cnccn2)cc1C(F)(F)F)[C@@H]1C[C@@H]2CN(C(=O)n3cc(C(N)=O)cn3)C[C@@H]2C1` [Example 226, 1-(cis-5-(methyl(4-(pyrazin-2-yl)-2-(trifluoromethyl)benzyl)amino)octahydrocyclopenta[c]pyrrole-2-carbonyl)-1H-pyrazole-4-carboxamide] were no less than 75% and no less than 75%.
The matching figures for `CN(Cc1ccc(-c2nccs2)cc1C(F)(F)F)[C@@H]1C[C@@H]2CN(C(=O)n3cc(C(N)=O)cn3)C[C@@H]2C1` [Example 227, 1-(cis-5-(methyl(4-(thiazol-2-yl)-2-(trifluoromethyl)benzyl)amino)octahydrocyclopenta[c]pyrrole-2-carbonyl)-1H-pyrazole-4-carboxamide]: no less than 75% and no less than 75%.
